Paper PMC12564265, “Navigating the Deep Eutectic Solvent Landscape: Experimental and Machine Learning Solubility Explorations of Syringic, p-Coumaric, and Caffeic Acids” (International Journal of Molecular Sciences, 2025)
“And” between values parts separate entries of the source, which are not always exact repeats. Equal entries are not always repeated.

Assay: Shake-flask solubility with spectrophotometric measurement in aqueous DES mixtures
Assay type: physicochemical
Description: In order to determine the solubility of the three studied phenolic acids in deep eutectic solvents, a very well-established shake-flask method coupled with spectrophotometric measurements was utilized. The initial procedure involved the preparation of various DESs, which was conducted by mixing their HBA and HBD counterparts in a glass vessel and heating the composition until the formation of a transparent, uniform liquid. […] For additional measurements, the DESs were mixed with water in varying proportions, creating aqueous DES systems. Saturated solutions of CAF, SYR, and COU were obtained by adding excess amounts of these compounds to test tubes containing either a neat deep eutectic solvent or its aqueous solution. Such samples were placed in the Orbital Shaker Incubator ES-20/60 from Biosan (Riga, Latvia) and heated for 24 h at 25 °C, 30 °C, 35 °C, and 40 °C (±0.1 °C) with simultaneous mixing at 60 rpm. Before measurements, the samples were filtered using a PTFE syringe filter from Qpore (Dallas, TX, USA) with a 0.22 μm pore size. In order to avoid possible precipitation of the saturated solutions at decreased temperatures, the test tubes, syringes, pipette tips, and filters were kept at a temperature identical to that of the samples. The spectrophotometric measurements required the preparation of calibration curves for the three APIs. This involved the preparation of a stock solution of each compound in methanol, which was later successfully diluted, and the obtained solutions of varying concentrations were measured using an A360 spectrophotometer from AOE Instruments (Shanghai, China). The wavelength range was set to 200-500 nm, and the resolution was 1 nm. The analytical wavelengths were determined to be 324 nm for caffeic acid, 273 nm for syringic acid, and 308 nm for p-coumaric acid. The final regression equations, obtained after averaging three distinct sets of measurements, are collected in Table 2 together with determination coefficients and limits of detection (LOD) and quantification (LOQ) for the calibration curves. The measurements of the samples were conducted with the same spectrophotometer and identical settings. Methanol was used for the dilution of the samples so that they could remain within the linearity range of the method. Complete spectra of the samples were recorded, but for the solubility determination, the absorbance values at a specific analytical wavelength were considered. These values were combined with the corresponding regression equations of the calibration curves and served for the calculation of the concentration of the three phenolic acids in the studied samples. The densities of such samples were also measured, and for this task 1 mL of each sample was weighed to a precision of 0.1 mg using an AS 110 R2.PLUS analytical balance from […] (Radom, Poland). The obtained densities enabled the calculation of mole fractions of CAF, SYR, and COU dissolved in the studied DESs. For each considered system, three distinct measurements were conducted, and the results were averaged.

O=C(O)C=Cc1ccc(O)c(O)c1 [caffeic acid, 3,4-dihydroxycinnamic acid]
Mole fraction solubility (Bet – TEG 1:2 + water, x*DES 0.1, 25°C): 0.0077±0.0001 mole fraction | Mole fraction solubility (Bet – TEG 1:2 + water, x*DES 0.1, 30°C): 0.0087±0.0001 mole fraction | Mole fraction solubility (Bet – TEG 1:2 + water, x*DES 0.1, 35°C): 0.0101±0.0001 mole fraction | Mole fraction solubility (Bet – TEG 1:2 + water, x*DES 0.1, 40°C): 0.0121±0.0001 mole fraction | Mole fraction solubility (Bet – TEG 1:2 + water, x*DES 0.2, 25°C): 0.0155±0.0001 mole fraction | Mole fraction solubility (Bet – TEG 1:2 + water, x*DES 0.2, 30°C): 0.0195±0.0002 mole fraction | Mole fraction solubility (Bet – TEG 1:2 + water, x*DES 0.2, 35°C): 0.0203±0.0002 mole fraction | Mole fraction solubility (Bet – TEG 1:2 + water, x*DES 0.2, 40°C): 0.0243±0.0003 mole fraction | Mole fraction solubility (Bet – TEG 1:2 + water, x*DES 0.3, 25°C): 0.0243±0.0002 mole fraction | Mole fraction solubility (Bet – TEG 1:2 + water, x*DES 0.3, 30°C): 0.0271±0.0002 mole fraction | Mole fraction solubility (Bet – TEG 1:2 + water, x*DES 0.3, 35°C): 0.0318±0.0002 mole fraction | Mole fraction solubility (Bet – TEG 1:2 + water, x*DES 0.3, 40°C): 0.0377±0.0003 mole fraction | Mole fraction solubility (Bet – TEG 1:2 + water, x*DES 0.4, 25°C): 0.0343±0.0002 mole fraction | Mole fraction solubility (Bet – TEG 1:2 + water, x*DES 0.4, 30°C): 0.0379±0.0001 mole fraction | Mole fraction solubility (Bet – TEG 1:2 + water, x*DES 0.4, 35°C): 0.0450±0.0002 mole fraction | Mole fraction solubility (Bet – TEG 1:2 + water, x*DES 0.4, 40°C): 0.0538±0.0003 mole fraction | Mole fraction solubility (Bet – TEG 1:2 + water, x*DES 0.5, 25°C): 0.0432±0.0002 mole fraction | Mole fraction solubility (Bet – TEG 1:2 + water, x*DES 0.5, 30°C): 0.0476±0.0003 mole fraction | Mole fraction solubility (Bet – TEG 1:2 + water, x*DES 0.5, 35°C): 0.0565±0.0003 mole fraction | Mole fraction solubility (Bet – TEG 1:2 + water, x*DES 0.5, 40°C): 0.0690±0.0009 mole fraction | Mole fraction solubility (Bet – TEG 1:2 + water, x*DES 0.6, 25°C): 0.0543±0.0003 mole fraction | Mole fraction solubility (Bet – TEG 1:2 + water, x*DES 0.6, 30°C): 0.0601±0.0005 mole fraction | Mole fraction solubility (Bet – TEG 1:2 + water, x*DES 0.6, 35°C): 0.0703±0.0005 mole fraction | Mole fraction solubility (Bet – TEG 1:2 + water, x*DES 0.6, 40°C): 0.0870±0.0009 mole fraction | Mole fraction solubility (Bet – TEG 1:2 + water, x*DES 0.7, 25°C): 0.0659±0.0007 mole fraction | Mole fraction solubility (Bet – TEG 1:2 + water, x*DES 0.7, 30°C): 0.0737±0.0006 mole fraction | Mole fraction solubility (Bet – TEG 1:2 + water, x*DES 0.7, 35°C): 0.0862±0.0007 mole fraction | Mole fraction solubility (Bet – TEG 1:2 + water, x*DES 0.7, 40°C): 0.1046±0.0008 mole fraction | Mole fraction solubility (Bet – TEG 1:2 + water, x*DES 0.8, 25°C): 0.0797±0.0006 mole fraction | Mole fraction solubility (Bet – TEG 1:2 + water, x*DES 0.8, 30°C): 0.0901±0.0008 mole fraction | Mole fraction solubility (Bet – TEG 1:2 + water, x*DES 0.8, 35°C): 0.1042±0.0013 mole fraction | Mole fraction solubility (Bet – TEG 1:2 + water, x*DES 0.8, 40°C): 0.1253±0.0010 mole fraction | Mole fraction solubility (Bet – TEG 1:2 + water, x*DES 0.9, 25°C): 0.0823 mole fraction and 0.0823±0.0013 mole fraction | Mole fraction solubility (Bet – TEG 1:2 + water, x*DES 0.9, 30°C): 0.0941±0.0005 mole fraction | Mole fraction solubility (Bet – TEG 1:2 + water, x*DES 0.9, 35°C): 0.1123±0.0012 mole fraction | Mole fraction solubility (Bet – TEG 1:2 + water, x*DES 0.9, 40°C): 0.1364±0.0011 mole fraction | Mole fraction solubility (Bet – TEG 1:2, x*DES 1.0 (neat DES), 25°C): 0.0755±0.0010 mole fraction | Mole fraction solubility (Bet – TEG 1:2, x*DES 1.0 (neat DES), 30°C): 0.0844±0.0011 mole fraction | Mole fraction solubility (Bet – TEG 1:2, x*DES 1.0 (neat DES), 35°C): 0.0989±0.0012 mole fraction | Mole fraction solubility (Bet – TEG 1:2, x*DES 1.0 (neat DES), 40°C): 0.1215±0.0012 mole fraction | Increase in the solubility compared to the neat DES (Bet-TEG 1:2, x*DES = 0.9 (xwater = 0.1), 25 °C): 9% | Mole fraction solubility (ChCl – TEG 1:2 + water, x*DES 0.1, 25°C): 0.0098±0.0001 mole fraction | Mole fraction solubility (ChCl – TEG 1:2 + water, x*DES 0.1, 30°C): 0.0125±0.0001 mole fraction | Mole fraction solubility (ChCl – TEG 1:2 + water, x*DES 0.1, 35°C): 0.0162±0.0001 mole fraction | Mole fraction solubility (ChCl – TEG 1:2 + water, x*DES 0.1, 40°C): 0.0211±0.0001 mole fraction | Mole fraction solubility (ChCl – TEG 1:2 + water, x*DES 0.2, 25°C): 0.0184±0.0002 mole fraction | Mole fraction solubility (ChCl – TEG 1:2 + water, x*DES 0.2, 30°C): 0.0233±0.0002 mole fraction | Mole fraction solubility (ChCl – TEG 1:2 + water, x*DES 0.2, 35°C): 0.0321±0.0001 mole fraction | Mole fraction solubility (ChCl – TEG 1:2 + water, x*DES 0.2, 40°C): 0.0432±0.0002 mole fraction | Mole fraction solubility (ChCl – TEG 1:2 + water, x*DES 0.3, 25°C): 0.0292±0.0002 mole fraction | Mole fraction solubility (ChCl – TEG 1:2 + water, x*DES 0.3, 30°C): 0.0366±0.0003 mole fraction
